# Laboratory results: publication PMC3004258, “Structure of the inhibitor complex of old yellow enzyme from Trypanosoma cruzi” (Journal of Synchrotron Radiation, 2010)
# Target: T1, TcOYE (old yellow enzyme from Trypanosoma cruzi; PGF2alpha synthase) (Trypanosoma cruzi, UniProt Q8I6L9)
# T1 construct: gene TcPGFS; recombinant, overexpressed in E. coli and purified; 2 molecules per asymmetric unit; residues up to at least 379
# T1 sequence (Q8I6L9 1-379): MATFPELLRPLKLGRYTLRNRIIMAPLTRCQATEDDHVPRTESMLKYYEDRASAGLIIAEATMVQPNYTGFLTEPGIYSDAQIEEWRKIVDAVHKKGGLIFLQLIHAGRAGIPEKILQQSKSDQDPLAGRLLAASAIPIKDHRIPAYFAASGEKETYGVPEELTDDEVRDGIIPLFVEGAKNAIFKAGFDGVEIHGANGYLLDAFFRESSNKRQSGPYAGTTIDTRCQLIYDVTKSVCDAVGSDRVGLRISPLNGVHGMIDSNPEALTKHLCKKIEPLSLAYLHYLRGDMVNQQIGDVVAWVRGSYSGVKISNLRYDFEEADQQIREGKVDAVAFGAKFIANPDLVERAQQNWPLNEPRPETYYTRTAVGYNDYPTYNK
# Test: X-ray crystallography, […] Å
# Assay type: binding
# Details: TcOYE/FMN binary complex; prosthetic group at C-terminal ends of barrel strands
compound,measurement,value
Cc1cc2nc3c(=O)[nH]c(=O)nc-3n(C[C@H](O)[C@H](O)[C@H](O)COP(=O)(O)O)c2cc1C [FMN],"X-ray crystallography, 1.7 Å",The structure of TcOYE/FMN binary complex was determined by molecular replacement methods
